# Results taken from patent US7531195B2, “Schisandrin B preparation” (priority 2005, dated 2009).
# Marks after values point to notes of the source that are not given here.
# Legend:
# Format in all cases: in vivo, rat
# Myocardial Mitochondria [1] = experiment: Myocardial mitochondrial ATP generation capacity, young male and female rats; conditions: 35 days
# Experimental: Male/Female adult Sprague-Dawley rats (˜10 weeks old) were maintained under a 12-h dark/light cycle at about 22° C. and allowed food and water ad libitum. Animals were randomly divided into groups, with at least 5 animals in each. In the pretreatment groups, rats were treated intragastrically with (−) Schisandrin B at a daily dose of 1 or 10 mg/kg for 35 days. Control animals received oil only (10 ml/kg). Twenty-four hours following the last dosing, hearts were isolated from control or drug-pretreated rats and then subjected to Langendorff perfusion as described below.
# (§1) Myocardial tissue samples were rinsed with ice-cold isotonic buffer (50 mM Tris, 0.32 M sucrose, 1 mM Na2EDTA, 0.2 mg/ml soybean trypsin inhibitor, 0.2 mg/ml bacitracine, 0.16 mg/ml benzamidine). Tissue homogenates were prepared by homogenizing 0.8 g of myocardial tissue in 8 ml ice-cold isotonic buffer and the homogenates were used for the preparation of mitochondrial fractions by differential centrifugation, as described in Chiu and Ko (2004). The mitochondrial pellets were resuspended in 1.5 ml of isotonic buffer containing 150 μl of 2 mg/ml soybean trypsin inhibitor and constituted the mitochondrial fractions.
# (§2) Myocardial mitochondrial ATP generation capacity was measured by incubating 200 μl of nucleus-free tissue homogenate with 200 μl of substrate solution (containing 100 mM glutamate and 34 mM malate) and 20 μl ADP (2.3 mM) for 10 min at 37° C., and the ATP level were measured using an assay kit from Sigma Chemical Co. (St. Louis, Mo., USA). LDH activity was spectrophotometrically measured as described (Yim and Ko 1999).
# Myocardial Mitochondria [2] = experiment: Myocardial mitochondrial ATP generation capacity, old male and female rats; conditions: liposome-encapsulated in drinking water, 10 mg/kg daily, 35 days
# Experimental: Aged male and female rats (˜12 months old) were administered with liposome-encapsulated (−) Schisandrin B in drinking water for 35 days, with the daily dose estimated to be 10 mg/kg.
# Male/Female adult Sprague-Dawley rats (˜12 months old) were maintained under a 12-h dark/light cycle at about 22° C. and allowed food and water ad libitum. Animals were randomly divided into groups, with at least 5 animals in each. In the pretreatment groups, rats were treated with liposome-encapsulated (−) Schisandrin B in drinking water for 35 days, with the estimated daily dose of 10 mg/kg. Control animals received empty liposomes-containing drinking water. Twenty-four hours following the last dosing, hearts were isolated from control or drug-pretreated rats and then subjected to Langendorff perfusion as described below.
# as §1, §2
# Hsp25 = experiment: Tissue Hsp25 level in young female rats (Western blot); conditions: 10 mg/kg daily, 15 days
# Experimental: Female Sprague-Dawley rats (8 weeks old) were maintained under a 12-h dark/light cycle at about 22° C. and allowed food and water ad libitum. Drug treated animals received a daily bolus dose of (−) Schisandrin B, α-lipoic acid (α-LA) or α-tocopherol (α-Toc) at 10, 5 and 70 mg/kg, respectively, for 15 days. The dosages were determined with reference to the equivalent amount of crude herb prescribed for human or the daily recommended intake in health supplements. The control animals received olive oil only. Twenty-four hours after the last dose, the pentobarbital-anesthetized animals were sacrificed by cardiac excision, and brain. heart, liver and skeletal muscle tissues were obtained.
# Hsp25 and Hsp70 levels was estimated by Western blot analysis using specific antibodies (anti-Hsp25, catalog #SPA-801; anti-Hsp70, catalog #SPA-812) from StressGen (Vancouver, BC, Canada) following SDS-PAGE analysis of the nuclear-free tissue homogenates, using a separating gel of 10% acrylamide as described in Ip et. al. (2001). Hsp25/27 and Hsp70 (human recombinant proteins from StressGen) and actin (bovine muscle from Sigma) were used as markers for reference. […] All immuno-blots were analyzed by densitometry, and the amounts (arbitrary units) of Hsp were normalized with reference to actin levels (arbitrary units) in the sample.
# isolated heart = experiment: Myocardial I-R injury (LDH leakage) in young adult and middle-aged rats; conditions: 10 mg/kg/day x 35
# Experimental: Young adult (8-10 week-old) and middle-aged (12-14 month-old retired breeder) female Sprague-Dawley rats were maintained under a 12-h dark/light cycle at about 22° C. and allowed food and water ad libitum. Experimental protocols were approved by the Research Practice Committee at the Hong Kong University of Science & Technology, Hong Kong. Animals were randomly divided into groups, with 5 animals in each. In the treatment groups, rats were intragastrically administered with Sch B (dissolved/suspended in olive oil) at a daily dose of 10 mg/kg for 15 days. The daily dose is approximated to 1.14 mg/kg for humans after adjusting the inter-species difference in drug distribution in the body. Untreated control animals received olive oil only. Twenty-four hours after the last dosing, animals were sacrificed by decapitation and the whole brain, heart ventricular, liver and skeletal muscle (hind limb) tissues were excised and subjected to biochemical analysis. To investigate the effect of (−) Sch B on myocardial ischemia-reperfusion […] injury, rats were intragastrically administered with (−) Sch B at a daily dose of 10 mg/kg for 35 days. Untreated control animals received olive oil only. Twenty-four hours after the last dosing, hearts were isolated from pentobarbital-anesthetized animals and subjected to I-R experiment. […]
# [3] = female rats, 1 mg/kg daily oral
# [4] = female rats, 10 mg/kg daily oral
compound,measurement,setting,value
"COc1cc2c(c(OC)c1OC)-c1c(cc3c(c1OC)OCO3)CC(C)C(C)C2 (single isomer, unassigned; (-)) [(−) Sch B, (−) Schisandrin B]","ATP Generation, percent increase vs untreated control",Myocardial Mitochondria [1]; [3],(26%)
same,ATP generation,Myocardial Mitochondria [1]; [3],4.11 ± 0.19^b μmol/min/mg protein
same,"ATP Generation, percent increase vs untreated control",Myocardial Mitochondria [1]; [4],(78%)
same,ATP generation,Myocardial Mitochondria [1]; [4],5.79 ± 0.37^b μmol/min/mg protein
same,"ATP Generation, percent increase vs untreated control","Myocardial Mitochondria [1]; male rats, 1 mg/kg daily oral",(99%)
same,"ATP Generation, percent increase vs untreated control","Myocardial Mitochondria [1]; male rats, 10 mg/kg daily oral",(141%)
same,ATP generation,"Myocardial Mitochondria [1]; male rats, 10 mg/kg daily oral",6.74 ± 0.37^a μmol/min/mg protein
same,ATP generation,Myocardial Mitochondria [2]; old female rats (~12 months),4.43 ± 0.10^b μmol/min/mg protein
same,"ATP Generation, percent increase vs untreated control",Myocardial Mitochondria [2]; old female rats,(48%)
same,ATP generation,Myocardial Mitochondria [2]; old male rats (~12 months),3.75 ± 0.06 μmol/min/mg protein
same,"ATP Generation, percent increase vs untreated control",Myocardial Mitochondria [2]; old male rats,(11%)
same,changes in Hsp25 level in all tissues,Hsp25,No detectable changes
same,"Heat Shock Protein Level, Hsp25",Hsp25; BRAIN,0.16 ± 0.01 AU
same,"Heat Shock Protein Level, Hsp25",Hsp25; HEART,0.77 ± 0.05 AU
same,"Heat Shock Protein Level, Hsp25",Hsp25; LIVER,0.41 ± 0.02 AU
same,"Heat Shock Protein Level, Hsp25",Hsp25; SKELETAL MUSCLE,0.59 ± 0.03 AU
same,degree of protection against myocardial I-R injury,isolated heart; middle-aged rats,36%
same,degree of protection against myocardial I-R injury,isolated heart; young adult rats,55%
